The nature of data set [1]: Brain penetration index (BPI) determination, brain uptake relative to liver. Conditions: for brain uptake / BPI relative to dopamine: compared with dopamine. The format is in vivo, male balb C mice. An excerpt: A brain penetration index (BPI) determination was used as a criterion for measuring the capacity of a compound to cross the blood brain barrier. Shashoua, V. E., Jacob, J. N., Ridge, R., Campbell, A. and Baldessarini, R. J., J. Med. Chem. 27, 659 (1984). The BPI is a measure of the uptake of a compound by the brain relative to its uptake by the liver. The liver is chosen as a reference since it is an organ which has no barrier to diffusable molecules present in the blood. Moreover, even if subcutaneous injections are used, the injected material tends to remain largely at the site of the injection and slowly diffuse into the circulation. Therefore, the amount of material in the liver will reflect the amount available rather than the initial dose injected.
Measurements of the quantity of the drug present in the brain and liver were measured at five minutes after a subcutaneous injection and were used to calculate the BPI, the equation being: […]
For these measurements, compound 8739 was synthesized from ^14C-labeled dopamine. Thirty μCi of dopamine labeled hydrochloride was mixed with 0.1 mg of unlabeled dopamine hydrobromide and reacted with a two-fold excess of DHA anhydride. The reaction was run overnight; the product was then evaporated to dryness and dissolved in ethanol. The compound was identified as 8739 by its migration properties on thin-layer chromatography using chloroform:methanol as one solvent and dimethylformamide (DMF) as the other. The migration properties were equivalent to those of the unlabeled product.
^14C-labeled 8739 was dissolved in 15% propylene glycol in 0.1 M NaHCO3 and then injected subcutaneously (s.c.) into male balb C mice (20±2 g). After 5 minutes the animals were sacrificed by cervical fracture and the brain and liver were dissected out, weighed and homogenized in 8 and 10 ml of Brain Protein Solvent (BPS) buffer, respectively [BPS=2% sodium dodecyl sulfate in 0.03 M Tris, 6 M urea, pH 7.6, 0.01 M EDTA and 0.14 N NaCl]. Aliquots were then counted for ^14C content in 10 ml of a liquid scintillation fluid, Liquiscent (National Diagnostic Company, Somerville, N.J.) using a Beckman liquid scintillation counter. The ^14C counts were then used to calculate the total quantity of compound 8739 present in the brain per gram of tissue as compared to that in the liver. The ratio of the amount in the brain as a percent of that present in liver was determined.

The nature of data set [2]: Test for tolerance: open field activity during daily injections. Conditions: 20 mg/kg i.p. daily for 21 days. The format is in vivo, mice. As for the experimental part:
The effects of daily i.p. injections of compound 8739 at a dose of 20 mg/kg on open field activity and food consumption was tested to determine whether tolerance to the drug was induced over time. The open field activity of six test mice and six control mice was monitored for five days. Then, the test mice were given i.p. injections of the drug in a vehicle and the control mice were given i.p. injections of the vehicle only. This regimen was carried out for a 21 day test period. At the end of the 21 days, the vehicle alone was given daily to both test and control mice and open field activity and food consumption was monitored for an additional six days.
FIG. 3 plots the percent decrease in open field activity of the test mice (n=6) as compared to the controls (n=6). […] Upon initation of injections, there was a 30% to 60% decrease in open field activity. […] Beginning at day 22 and daily until day 27, vehicle alone was given to both groups.

A short description of data set [3]: Circling behavior in rats with unilateral nigrostriatal lesions. Format: in vivo. Particulars: for AVERAGE ROTATION SCORES (Rotations/minutes) Contralateral / AVERAGE ROTATION SCORES (Rotations/minutes) Ipsilateral: 30-min period; for circling behavior (in words): rats with nigrostriatal lesions, i.p. As for the experimental part:
Dopamine agonists such as apomorphine and amphetamine cause circling behavior in animals with nigrostriatal lesions.
Unilateral nigrostriatal lesions in rats were produced by administering unilateral injections of 6-OH dopamine into the nigrostriatum pathway. Seven days later, these animals were i.p. injected with the test drugs and circling behavior was recorded as rotations per minute during a 30-min period in the test apparatus, Ungerstedt U. and Arbathnott G. W., Brain Res. 24, 485-493 (1970).

Another data set concerns the target D-2 dopamine receptors (Homo sapiens, UniProt P14416). Kind of data set: Dopamine receptor binding assay (D-2).
A short description of data set [4]: Self-stimulation test (electrodes in lateral hypothalamus). Format: in vivo. Conditions: rats. The text has this: A self-stimulation test has been used to measure the capacity of a given pharmacological agent to inhibit rats from receiving self-induced electrical stimuli via electrodes implanted in their brains (lateral hypothalamus). Stellar J. R. and Stellar E., The Neurobiology of Motivation and Reward, Springer-Verlag, New York, 1985. Animals will press levers to receive a pulse of current from the implanted electrode at a rate dependent upon the quantity of current that is being delivered as a reward. […] R.). […] A plot of the log of the frequency of the delivered pulses vs. the rate of level press for an animal gives the self-stimulation reward curve. Injections of drugs which have a neuroleptic-type or tranquilizing effect can depress the rate of self-stimulation, shifting the response to higher current deliveries. Pemozide can give a depressed rate by about 90%. […] The animal continues to press the lever at the rate equivalent to a non-injected control or one receiving the vehicle alone.

The conditions of data set [5]: in vivo. The text has this:
Many of the undesirable side effects of amphetamines were absent. […] Failure to induce tolerance was unexpected.

Data set [6] is described as follows: Pattern of distribution of 14C-labeled 8739 in membranes of the central nervous system (P1/P2 fractions). Format: in vivo, mice. As for the experimental part: The fraction P1 containing nuclear and cell membrane components was sedimented for 5 min at 2,500 rpm at 0° C. The supernatant containing the crude synaptosomal fraction was next centrifuged at 13,000 rpm for 30 min to yield a pellet containing the crude synaptosomal fraction (P2). P1 and P2 were then dissolved in BPS, and the amount of label and protein in each fraction was determined.

Data set [7] is described as follows: Food consumption measurements. Format: in vivo, balb-c mice. Conditions: oral administration, same experiment. Here is the method:
The effect of compound 8739 on food consumption was determined for balb-c mice that were food deprived for 24 hr, with water freely available. The six test mice were given an i.p. injection of compound 8739 as a solution in 15% propylene glycol in 0.1 M NaHCO3, a total volume of between about 0.1-0.3 ml. The six control mice received the same volume of vehicle, but no drug. The quantity of “mouse chow” eaten during the 60-min period following the injections was determined. The results, also shown in FIG. 1, are expressed as the percent decrease in food consumption for the test group versus the control group. […] The decrease was dose dependent, with higher doses of compound 8739 causing greater decrease in food intake. The same experiment was conducted using oral administration of compound 8739.

The mark [8] stands for this setting: 14C-labeled, s.c. injection, mice, 5 minutes after injection.
[9] abbreviates: 14C-labeled 8739 s.c., mice, brain, 30 min.

The record followed here is patent US6407137B2, “Dopamine analog amide” (Protarga, Inc., priority 1988, dated 2002).

Several values for one entry are separate records, joined by “and”; a condition that tells them apart may be missing. Equal entries are not always repeated. Entries after “also recorded” stand apart in the source; their conditions may differ.

Sequence of D-2 dopamine receptors (P14416 whole entry): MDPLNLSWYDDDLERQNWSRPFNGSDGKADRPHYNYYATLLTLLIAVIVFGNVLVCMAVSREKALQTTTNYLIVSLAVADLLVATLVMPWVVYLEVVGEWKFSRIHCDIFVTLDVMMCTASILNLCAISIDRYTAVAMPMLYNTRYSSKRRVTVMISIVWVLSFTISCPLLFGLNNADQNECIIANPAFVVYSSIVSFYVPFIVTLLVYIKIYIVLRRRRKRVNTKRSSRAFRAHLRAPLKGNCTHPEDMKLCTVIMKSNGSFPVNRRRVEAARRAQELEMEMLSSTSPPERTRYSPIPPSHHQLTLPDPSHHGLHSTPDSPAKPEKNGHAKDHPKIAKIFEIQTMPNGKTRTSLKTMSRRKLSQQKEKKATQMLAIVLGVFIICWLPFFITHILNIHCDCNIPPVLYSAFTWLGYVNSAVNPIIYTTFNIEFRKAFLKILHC

For the compound `CC/C=C\C/C=C\C/C=C\C/C=C\C/C=C\C/C=C\CCC(=O)NCCc1ccc(O)c(O)c1` [Compound 8739], in data set [1] (setting [8]), the “Brain (cpm/g)” value was 1305 cpm/g and 1297 cpm/g; the “Liver (cpm/g)” value is 4300 cpm/g and 3931 cpm/g. Moreover, in data set [1] (BPI=[brain]/[liver]x100, 5 minutes after s.c. injection), the “BPI Value (%)” value was 30% and 33%. Moreover, the “brain uptake / BPI relative to dopamine” value in data set [1] is “eight times that of dopamine”. Moreover, in data set [1] (listed as compound 8739), the “brain uptake / BPI relative to dopamine” value was “over eight-fold higher”. In data set [2], the tolerance entry is “no indication of tolerance”. Moreover, the tolerance result in data set [2] (listed as compound 8739) is reported as “no tolerance was induced”. Moreover, in data set [3] (34 mg/kg i.p.), the “AVERAGE ROTATION SCORES (Rotations/minutes) Contralateral” value is 0.05 Rotations/minutes and the “AVERAGE ROTATION SCORES (Rotations/minutes) Ipsilateral” value was 0.08 Rotations/minutes. In data set [3] (51 mg/kg i.p.), the “AVERAGE ROTATION SCORES (Rotations/minutes) Contralateral” value amounted to 0.12 Rotations/minutes and the “AVERAGE ROTATION SCORES (Rotations/minutes) Ipsilateral” value is recorded as 0.08 Rotations/minutes. In addition, the “circling behavior (in words)” value in data set [3] is “failed to produce an effect; also recorded: did not evoke this behavior”. The “circling behavior (in words)” value in data set [3] (listed as compound 8739) is “do not result”. The “binding to D-2 dopamine receptors” value on D-2 dopamine receptors is recorded as “does not bind”. Moreover, the “effect on self-stimulation parameters (reward, motor aspect, motivation)” value in data set [4] is given as “no effect on either the reward or the motor aspect; also recorded: do not result”. For the same compound, in data set [5], the “effects on motor function or motivation” value is “failed to demonstrate any diverse effects” and the stereotypy result was “failed to induce”. Moreover, in data set [6] (setting [9]), the “P1 (Nuclear and Cell Membrane Fraction), CPM/mg Protein after 30 min of Uptake” value was 4.19 CPM/mg Protein and 2.7 CPM/mg Protein; the P2/P1 is 2.9 and 1.9 and 2.1. The “factor by which uptake into P2 was greater than into P1, average” value in data set [6] (average of the experiments of Table II) is 2.3. Moreover, the “food consumption, oral administration compared with i.p.” value in data set [7] is on record as “The results were the same”.
